Key:
[1] = Flux through human skin from articles of FIG. 4 (Example V); conditions: reservoir 5% drug
[2] = even at higher clonidine concentrations
[3] = cited from earlier work
[4] = Release of timolol from polymeric reservoir with and without ethylene-methyl acrylate membranes (Example IV); type: physicochemical
Source text: FIG. 11 is a graph of timolol release versus time (time versus accumulation) from an ADMEX® 760 reservoir without the use of a control membrane as set forth in Example IV. The graph indicated by reference numeral 111 is the graph of mg/cm^2 of timolol release versus hours. The basis of this graph is more specifically set forth in Example IV.
FIG. 13 is a series of graphs (time versus flux) of timolol release rate through control membranes consisting of copolymers of ethylene and methyl acrylate; 5% and 7% with 1.25 mils thickness and 2.5 mils thickness as more specifically set forth in Example IV. The graph indicated by reference numeral 130 is the graph for a membrane having 7% methyl acrylate repeating monomeric units and a membrane of thickness 1.25 mils. The graph indicated by reference numeral 131 is the graph for use of a membrane containing 5% methyl acrylate repeating monomeric units with a thickness of 1.25 mils. The graph indicated by reference numeral 132 is the graph for the use of a membrane containing 7% methyl acrylate repeating monomeric units and having a thickness of 2.5 mils. The graph indicated by reference numeral 133 is the graph for a membrane containing 5% methyl acrylate repeating monomeric units and having a thickness of 2.5 mils.

[5] = system of European Patent 186,071; cited from earlier work

## CC(C)(C)NCC(O)c1cc(Cl)c(N)c(Cl)c1 (centres unmarked) [CLENBUTEROL]
[1]; with membrane 1.25 mil EMA (11% MA)
  Flux Thru Human Skin: 15.1 ug/cm^2 /day
[1]; without membrane, 35% PVC resin, 60% ADMEX 760
  Flux Thru Human Skin: 34.5 ug/cm^2 /day

## Clc1cccc(Cl)c1NC1=NCCN1 [clonidine]
[2]
  effect of copolymeric EMA membranes on drug diffusion rates in the transdermal patch: lower the drug diffusion rates in the transdermal patch even at higher clonidine concentrations
[3]
  solubility in mineral oil: approximately 0.5 mg/ml

## CC(C)(C)NC[C@H](O)COc1nsnc1N1CCOCC1 [timolol]
[4]; 5% and 7% methyl acrylate, 1.25 and 2.5 mils thickness
  release of timolol from the reservoir through ethylene-methyl acrylate membranes: Relatively controlled and constant release of the drug was obtained for a period of seven days
[4]; in the absence of a membrane, ADMEX 760 reservoir
  release of timolol from a polymeric reservoir into an aqueous sink: very high and followed typical first order kinetics
[4]; use of ethylene methyl acrylate membranes
  release behavior of timolol from a polymeric reservoir: altered by the use of ethylene methyl acrylate membranes
[5]
  irritation to the skin on transdermal application: substantially no irritation to the skin

Reference: patent US5310559A, “Device for controlled release and delivery to mammalian tissue of pharmacologically active agents incorporating a rate controlling member which comprises an alkylene-alkyl acrylate copolymer” (Hercon Laboratories Corporation, priority 1992, dated 1994)
